The source of these data is US5702935A, “Method and compounds for inhibiting lipid biosynthesis of bacteria and plants” (priority 1994, dated 1997).

For orientation: Kd means a measure of binding affinity in units of concentration.

Data set [1] deals with T1, InhA (Mycobacterium tuberculosis, UniProt P9WGR1). As to the kind of experiment: Spectrophotometric (340 nm) assay of InhA-catalyzed NADH-dependent reduction, substrate test and steady-state kinetics.
The subject of data set [2] is NADH-dependent enoyl-CoA reductase of M. smegmatis. The settings on record: read-out: steady-state Michaelis constant; cited from earlier work.
The test system of data set [3] is Brassica enoyl-ACP reductase. The note with it: read-out: steady-state Michaelis constant; cited from earlier work.
The target in data set [4] is T1, InhA. The experiment in a line: Microcalorimetry binding of adenine dinucleotides to InhA. Also on record: species or system M. tuberculosis. The note with it: for binding to InhA (in words): microcalorimetry, dinucleotide 0-100 μM.
Data set [5] has as its system mycolic acid biosynthesis. The data set is classed as biochemical, M. smegmatis.
Data set [6] concerns NC(=O)C1=CN([C@@H]2O[C@H](COP(=O)(O)OP(=O)(O)OC[C@H]3O[C@@H](n4cnc5c(N)ncnc54)[C@H](O)[C@@H]3O)[C@@H](O)[C@H]2O)C=CC1. The experiment in a line: purified protein, by the assay type. The settings on record: other: InhA-catalyzed reduction of 2-transoctenoyl-ACP, other substrate saturating.

“Also recorded” adds a separate entry of the source.

T1 sequence (P9WGR1 whole entry, looked up): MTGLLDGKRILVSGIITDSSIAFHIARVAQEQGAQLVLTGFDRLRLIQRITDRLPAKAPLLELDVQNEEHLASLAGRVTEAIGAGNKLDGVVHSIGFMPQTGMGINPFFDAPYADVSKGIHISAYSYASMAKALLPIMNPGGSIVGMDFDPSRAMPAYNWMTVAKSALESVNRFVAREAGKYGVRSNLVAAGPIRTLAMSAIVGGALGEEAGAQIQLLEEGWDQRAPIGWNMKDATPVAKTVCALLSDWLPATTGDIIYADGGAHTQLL

Compound 2-transoctenoyl-ACP yielded a maximum velocity in data set [1] (InhA-catalyzed reduction of 2-transoctenoyl-ACP by NADH) of 1570 µM/min/mg. For the same compound, the “activity as substrate for InhA in the presence of NADH” value in data set [1] (measured spectrophotometrically at 340 nm) was “Activity was demonstrated”. In addition, the Km in data set [1] (read-out: steady-state Km, InhA-catalyzed reduction of 2-transoctenoyl-ACP, other substrate saturating) amounted to 2 µM. Take `NC(=O)C1=CN([C@@H]2O[C@H](COP(=O)(O)OP(=O)(O)OC[C@H]3O[C@@H](n4cnc5c(N)ncnc54)[C@H](O)[C@@H]3O)[C@@H](O)[C@H]2O)C=CC1` [NADH]: the Km in data set [2] was 21 µM. Also, the Km in data set [3] is 7.6 µM. For the same compound, in data set [4] (37° C., 50 mM Tris pH 7.3), the “binding stoichiometry, molecules per dimer of InhA” value was “two” and the enthalpy of binding was -13.5 kcal/mol. In addition, in data set [4], the “binding to InhA (in words)” value was “tight and stoichiometric binding”. Moreover, the Kd in data set [4] (titration calorimetry, 37° C., 50 mM Tris pH 7.3, 100 μM InhA, read-out: Kd (binding constant) for binding to InhA) is 2000 nM.

As for `NC(=O)C1=CN([C@@H]2O[C@H](COP(=O)(O)OP(=O)(O)OC[C@H]3O[C@@H](n4cnc5c(N)ncnc54)[C@H](OP(=O)(O)O)[C@@H]3O)[C@@H](O)[C@H]2O)C=CC1` [NADPH], in data set [4], the “binding to InhA (in words)” value is reported as “Neither NADPH, NADP nor NAD exhibited significant binding; also recorded: failed to show appreciable binding affinity”. Still for that read-out and setting: under `NC(=O)c1ccc[n+]([C@@H]2O[C@H](COP(=O)([O-])OP(=O)(O)OC[C@H]3O[C@@H](n4cnc5c(N)ncnc54)[C@H](OP(=O)(O)O)[C@@H]3O)[C@@H](O)[C@H]2O)c1` [NADP] stands “Neither NADPH, NADP nor NAD exhibited significant binding; also recorded: failed to show appreciable binding affinity”; under `NC(=O)c1ccc[n+]([C@@H]2O[C@H](COP(=O)([O-])OP(=O)(O)OC[C@H]3O[C@@H](n4cnc5c(N)ncnc54)[C@H](O)[C@@H]3O)[C@@H](O)[C@H]2O)c1` [NAD], “Neither NADPH, NADP nor NAD exhibited significant binding; also recorded: failed to show appreciable binding affinity”.

On to `NNC(=O)c1ccncc1` [isoniazid], for which the “isoniazid-inhibition of mycolic acid biosynthesis (in words)” value in data set [5] was “marked resistance to isoniazid-inhibition”.

Take `CCCCC/C=C/C(=O)SCCNC(=O)CCNC(=O)[C@H](O)C(C)(C)COP(=O)(O)OP(=O)(O)OC[C@H]1O[C@@H](n2cnc3c(N)ncnc32)[C@H](O)[C@@H]1OP(=O)(O)O` [octenoyl-CoA]: the Km in data set [2] is 232 µM.

On to InhA (Mycobacterium tuberculosis H37Rv), for which the Km in data set [6] turned out to be 8 µM. As to octenoyl-ACP, the Km in data set [3] is under 1 µM.
